# Experimental data reported in patent US12486267B2, “Imidazo[1,2-A]pyridine and [1,2,4]triazolo[1,5-A]pyridine derivatives as TLR9 inhibitors for the treatment of fibrosis” (BRISTOL-MYERS SQUIBB COMPANY, priority 2020, dated 2025).
# How the values were obtained:
# human TLR9 = biological target: T1, human TLR9 (Homo sapiens, UniProt Q9NR96); experiment: TLR9 inhibition reporter assay (HEK-Blue cells, SEAP reporter); assay type: cell-based; settings: HEK-Blue cells overexpressing human TLR9; stimulated with ODN2006 5 nM; 22 hour incubation; SEAP readout
# T1 sequence (Q9NR96 26-1032): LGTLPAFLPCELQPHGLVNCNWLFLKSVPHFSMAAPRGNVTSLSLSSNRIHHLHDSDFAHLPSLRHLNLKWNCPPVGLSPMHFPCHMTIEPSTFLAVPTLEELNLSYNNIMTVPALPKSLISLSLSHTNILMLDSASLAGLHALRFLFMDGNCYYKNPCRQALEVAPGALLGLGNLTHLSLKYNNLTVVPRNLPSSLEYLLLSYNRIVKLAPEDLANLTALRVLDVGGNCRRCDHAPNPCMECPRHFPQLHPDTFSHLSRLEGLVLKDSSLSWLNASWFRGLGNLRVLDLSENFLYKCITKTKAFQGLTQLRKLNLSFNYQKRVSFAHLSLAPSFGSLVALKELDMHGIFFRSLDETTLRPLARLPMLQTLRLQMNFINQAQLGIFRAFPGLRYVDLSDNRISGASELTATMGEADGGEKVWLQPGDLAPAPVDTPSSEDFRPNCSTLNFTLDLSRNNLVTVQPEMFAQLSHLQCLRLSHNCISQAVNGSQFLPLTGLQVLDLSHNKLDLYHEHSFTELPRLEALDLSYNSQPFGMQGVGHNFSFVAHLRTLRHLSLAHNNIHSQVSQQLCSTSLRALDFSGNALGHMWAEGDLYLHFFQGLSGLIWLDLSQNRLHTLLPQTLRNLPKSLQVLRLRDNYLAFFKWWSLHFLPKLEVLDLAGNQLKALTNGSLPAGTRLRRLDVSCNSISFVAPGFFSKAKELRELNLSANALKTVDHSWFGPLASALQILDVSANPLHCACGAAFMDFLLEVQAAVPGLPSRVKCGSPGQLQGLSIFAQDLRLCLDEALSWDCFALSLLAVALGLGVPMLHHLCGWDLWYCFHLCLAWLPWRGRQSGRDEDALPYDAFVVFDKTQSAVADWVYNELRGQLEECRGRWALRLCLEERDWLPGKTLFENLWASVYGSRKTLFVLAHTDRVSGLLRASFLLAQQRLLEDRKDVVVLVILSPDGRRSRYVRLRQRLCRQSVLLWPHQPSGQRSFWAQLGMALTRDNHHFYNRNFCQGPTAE
# Protocol: (§1) TLR7/8/9 Inhibition Reporter Assays
# (§2) HEK-Blue™-cells (Invivogen) overexpressing human TLR7, TLR8 or TLR9 receptors were used for screening inhibitors of these receptors using an inducible SEAP (secreted embryonic alkaline phosphatase) reporter gene under the control of the […] minimal promoter fused to five NF-κB and AP-1-binding sites. Briefly, cells are seeded into Greiner 384 well plates (15000 cells per well for TLR7, 20,000 for TLR8 and 25,000 for TLR9) and then treated with test compounds in DMSO to yield a final dose response concentration range of 0.05 nM-50 μM. After a 30 minute compound pre-treatment at room temperature, the cells are then stimulated with a TLR7 ligand (gardiquimod at a final concentration of 7.5 μM), TLR8 ligand (R848 at a final concentration of 15.9 μM) or TLR9 ligand (ODN2006 at a final concentration of 5 nM) to activate NF-κB and AP-1 which induce the production of SEAP. After a 22 hour incubation at 37° C., 5% CO2, SEAP levels are determined with the addition of HEK-Blue™ Detection reagent (Invivogen), a cell culture medium that allows for detection of SEAP, according to manufacturer's specifications. The percent inhibition is determined as the % reduction in the HEK-Blue signal present in wells treated with agonist plus DMSO alone compared to wells treated with a known inhibitor.
# human TLR7 = biological target: T2, human TLR7 (Homo sapiens, UniProt Q9NYK1); experiment: TLR7 inhibition reporter assay (HEK-Blue cells, SEAP reporter); assay type: cell-based; settings: HEK-Blue cells overexpressing human TLR7; stimulated with gardiquimod 7.5 μM; 22 hour incubation; SEAP readout
# T2 sequence (Q9NYK1 27-1049): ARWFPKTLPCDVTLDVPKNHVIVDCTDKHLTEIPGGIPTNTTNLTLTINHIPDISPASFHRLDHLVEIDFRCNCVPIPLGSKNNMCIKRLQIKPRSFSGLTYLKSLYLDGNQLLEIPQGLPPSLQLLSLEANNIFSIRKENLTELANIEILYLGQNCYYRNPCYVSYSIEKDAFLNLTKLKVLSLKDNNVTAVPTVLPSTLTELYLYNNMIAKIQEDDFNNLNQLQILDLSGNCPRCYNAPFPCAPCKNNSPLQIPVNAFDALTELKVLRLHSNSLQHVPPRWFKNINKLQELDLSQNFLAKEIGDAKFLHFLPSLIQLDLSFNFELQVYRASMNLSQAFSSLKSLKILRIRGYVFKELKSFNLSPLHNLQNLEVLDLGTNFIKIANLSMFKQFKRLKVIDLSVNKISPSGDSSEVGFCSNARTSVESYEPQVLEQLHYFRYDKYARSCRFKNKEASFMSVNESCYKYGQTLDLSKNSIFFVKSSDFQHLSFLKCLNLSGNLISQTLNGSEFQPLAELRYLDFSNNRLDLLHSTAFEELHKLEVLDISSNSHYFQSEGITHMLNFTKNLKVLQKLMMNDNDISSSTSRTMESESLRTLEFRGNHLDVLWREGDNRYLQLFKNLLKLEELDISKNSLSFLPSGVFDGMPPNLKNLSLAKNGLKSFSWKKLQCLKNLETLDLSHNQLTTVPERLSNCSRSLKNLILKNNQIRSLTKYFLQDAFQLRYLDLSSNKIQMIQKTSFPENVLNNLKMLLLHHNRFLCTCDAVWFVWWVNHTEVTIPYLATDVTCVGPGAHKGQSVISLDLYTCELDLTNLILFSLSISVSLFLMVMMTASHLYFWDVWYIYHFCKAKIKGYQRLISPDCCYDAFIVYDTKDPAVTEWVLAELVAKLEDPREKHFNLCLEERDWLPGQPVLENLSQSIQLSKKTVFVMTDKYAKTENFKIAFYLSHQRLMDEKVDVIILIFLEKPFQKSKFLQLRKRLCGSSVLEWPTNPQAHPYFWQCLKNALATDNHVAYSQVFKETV
# Protocol: as §1, §2
SMILES,IC50 (human TLR9),IC50 (human TLR7)
"CC1CC(c2ccc(N3CCN(C(C)C)CC3)cc2)Cn2nc(-c3ccc(S(C)(=O)=O)cc3)nc21 (stereo not drawn) [Example 150, 6-(4-(4-isopropylpiperazin-1-yl)phenyl)-8-methyl-2-(4-(methylsulfonyl)phenyl)-5,6,7,8-tetrahydro-[1,2,4]triazolo[1,5-a]pyridine]",20900 nM,
"COc1ccc(-c2nc3n(n2)CC(C2CCC(N4CCN(C(C)C)CC4)CC2)CC3C)cc1OC (stereo not drawn) [Example 143, 2-(3,4-dimethoxyphenyl)-6-(4-(4-isopropylpiperazin-1-yl)cyclohexyl)-8-methyl-5,6,7,8-tetrahydro-[1,2,4]triazolo[1,5-a]pyridine]",7330 nM,
"COc1ccc(-c2nc3n(n2)CC(C2CC4CCC(C2)N4C2CCN(C4CC4)CC2)CC3)cc1OC (stereo not drawn) [Example 145, 6-(8-(1-cyclopropylpiperidin-4-yl)-8-azabicyclo[3.2.1]octan-3-yl)-2-(3,4-dimethoxyphenyl)-5,6,7,8-tetrahydro-[1,2,4]triazolo[1,5-a]pyridine]",342 nM,
"COc1ccc(-c2nc3ccc(C4CC5CCC(C4)N5C4CCN(C5CC5)CC4)cn3n2)cc1OC (stereo not drawn) [Example 146, 6-(8-(1-cyclopropylpiperidin-4-yl)-8-azabicyclo[3.2.1]octan-3-yl)-2-(3,4-dimethoxyphenyl)-[1,2,4]triazolo[1,5-a]pyridine]",769 nM,
"COc1ccc(-c2nc3c(C)cc(C4CCN(C5CCN(C6CC6)CC5)CC4)cn3n2)cc1OC [Example 157, 6-(1′-cyclopropyl-[1,4′-bipiperidin]-4-yl)-2-(3,4-dimethoxyphenyl)-8-methyl-[1,2,4]triazolo[1,5-a]pyridine]",232 nM,
"COc1ccc(-c2nc3ccc(C4CCN(C5CCN(C6CC6)CC5)CC4)cn3n2)cc1OC [Example 164, 6-(1′-cyclopropyl-[1,4′-bipiperidin]-4-yl)-2-(3,4-dimethoxyphenyl)-[1,2,4]triazolo[1,5-a]pyridine]",390 nM,
"Cc1cc(C2CCN(C3CCN(C4CC4)CC3)CC2)cn2nc(-c3ccc(S(C)(=O)=O)cc3)nc12 [Example 161, 6-(1′-cyclopropyl-[1,4′-bipiperidin]-4-yl)-8-methyl-2-(4-(methylsulfonyl)phenyl)-[1,2,4]triazolo[1,5-a]pyridine]",270 nM,
"COc1ccc(-c2nc3ccc(C4CC5CCC(C4)N5C4CCN(C(C)C)CC4)cn3n2)cc1OC (stereo not drawn) [Example 149, 2-(3,4-dimethoxyphenyl)-6-(8-(1-isopropylpiperidin-4-yl)-8-azabicyclo[3.2.1]octan-3-yl)-[1,2,4]triazolo[1,5-a]pyridine]",217 nM,
"Cc1cc(C2CC3CCC(C2)N3C2CCN(C3CC3)CC2)cn2nc(-c3ccc(S(C)(=O)=O)cc3)nc12 (stereo not drawn) [Example 159, 6-(8-(1-cyclopropylpiperidin-4-yl)-8-azabicyclo[3.2.1]octan-3-yl)-8-methyl-2-(4-(methylsulfonyl)phenyl)-[1,2,4]triazolo[1,5-a]pyridine]",594 nM,
"Cc1cc(C2CCN(C3CC4CCC(C3)N4CC(C)C)CC2)cn2cc(-c3ccc(S(C)(=O)=O)cc3)nc12 (single isomer, unassigned) [Example 85, 6-(1-(8-isobutyl-8-azabicyclo[3.2.1]octan-3-yl)piperidin-4-yl)-8-methyl-2-(4-(methylsulfonyl)phenyl)imidazo[1,2-a]pyridine]",27 nM,
"COc1ccc(-c2nc3n(n2)CC(C2CC4CCC(C2)N4C2CCN(C(C)C)CC2)CC3)cc1OC (stereo not drawn) [Example 148, 2-(3,4-dimethoxyphenyl)-6-(8-(1-isopropylpiperidin-4-yl)-8-azabicyclo[3.2.1]octan-3-yl)-5,6,7,8-tetrahydro-[1,2,4]triazolo[1,5-a]pyridine]",303 nM,
"COCCN1CCN(c2ccc(-c3cc(C)c4nc(-c5ccc(OC)c(OC)c5)cn4c3)cc2)CC1 [Example 98, 2-(3,4-dimethoxyphenyl)-6-(4-(4-(2-methoxyethyl)piperazin-1-yl)phenyl)-8-methylimidazo[1,2-a]pyridine]",456 nM,1000 nM
"CC(C)CN1CCC(N2CCC(c3ccn4cc(-c5ccc(S(C)(=O)=O)cc5)nc4c3F)CC2)CC1 [Example 74, 8-fluoro-7-(1′-isobutyl-[1,4′-bipiperidin]-4-yl)-2-(4-(methylsulfonyl)phenyl)imidazo[1,2-a]pyridine]",55 nM,2400 nM
